Data as given in patent US20240398989A1, “METHODS AND COMPOSITIONS FOR DIAGNOSIS AND TREATMENT OF METABOLIC DISORDERS” (The Broad Institute, Inc., priority 2021, published 2024).

How the values were obtained:
[1] = system: primary human hepatocytes (PHH); test: LipocyteProfiler of drug-treated primary human hepatocytes; assay type: cell-based; details: PHH, 24h oleic acid (0.3 mM)
Procedure: Primary human hepatocytes (PHH) were purchased from BioIVT. Donor lot YNZ was used in this study. PHH were thawed and immediately resuspended in CP media (BioIVT) supplemented with torpedo antibiotic (BioIVT). Cell count and viability were assessed by trypan blue exclusion test prior to plating. […] Four hours after plating, media was replaced with fresh CP media. After 24 h, media was replaced with fresh CP media or CP media containing oleic acid (0.3 mM) or metformin (5 mM). Hepatocytes were incubated for an additional 24 h prior to processing. Human primary AMSCs and PHH were plated in 96-well CellCarrier plates (Perkinelmer #6005550). […] Primary human hepatocytes were stained after 48 h in culture, and 24h following treatment with oleic acid or metformin. On the respective day of the assay, cell culture media was removed and replaced by 0.5 μM Mitotracker staining solution (1 mM MitoTracker Deep Red stock (Invitrogen #M22426) diluted in culture media) to each well followed by 30 minutes incubation at 37° C.' protected from light. […] PFA was removed and cells were washed once with Hank's Balanced Salt Solution (1×), HBSS (Gibco #14025076). […] Finally, staining solution was removed and cells were washed three times with HBSS. Cells were imaged using a Opera Phenix High content screening system. […] Prior to processing, flat field illumination correction was performed using functions generated from the median intensity across each plate. Nuclei were identified using the DAPI stain and then expanded to identify whole cells using the Phalloidin/WGA and BODIPY stains. Regions of cytoplasm were then determined by removing the Nuclei from the Cell segmentations. Speckles of BODIPY staining were enhanced to assist in detection of small and large individual Lipid objects. For each object set measurements were collected representing size, shape, intensity, granularity, texture, colocalization and distance to neighbouring objects. After LipocyteProfiler (LP) feature extraction data was filtered by applying automated and manual quality control steps. […] Second, every field was assessed visually and fields that were corrupted by experimental induced technical artifacts were removed. Furthermore, blocklisted features (Way, Gregory (2019): Blocklist Features-Cell Profiler. figshare. […] After filtering data were normalised per plate using a robust scaling approach (Pedregosa et al. 2011) that subtracts the median from each variable and divides it by the interquartile range. Individual wells were aggregated for downstream analysis by cell depot and day of differentiation.

[2] = cited from earlier work
[3] = 1 year follow up clinical trial

SMILES: CCCCCCCC/C=C\CCCCCCCC(=O)O [oleic acid]
- BODIPY Texture_AngularSecondMoment ([1]; p 7.21e-07): differences
- lipid droplet number (LargeBODIPYObjects_Count) ([1]; p=2.3e-11): increased
- overall lipid content (BODIPY MeanIntensity) ([1]; p=1.21e-09): increased
- BODIPY Texture Entropy ([1]; p=2.56e-09): differences

SMILES: CC1(C)CCC(CN2CCN(c3ccc(C(=O)NS(=O)(=O)c4ccc(NCC5CCOCC5)c([N+](=O)[O-])c4)c(Oc4cnc5[nH]ccc5c4)c3)CC2)=C(c2ccc(Cl)cc2)C1 [venetoclax]
- hyperglycemia, share of patients [2, 3]: 16%
- severe hyperglycemia, share of patients [2, 3]: 5%
- loss of body weight, share of cases ([2]; clinical trial): 11-13%
